Data from ChEMBL document CHEMBL5584226, “α-Fluorination of tropane compounds and its impact on physicochemical and ADME properties” (Bioorg Med Chem Lett, 2024).
Values after ≈ are worked out from the molar mass of the structure shown.

Legend:
P-gp (ABCB1) = P-gp (ABCB1) (Homo sapiens, UniProt P08183); experiment: Substrate activity at P-gp (unknown origin) assessed as efflux ratio; assay type: ADME; conditions: not told
[1] = Aqueous solubility of the compound in JP1 at pH 1.2; assay type: physicochemical; conditions: JP1, pH 1.2
[2] = Microsomal stability in human liver microsomes assessed as parent compound remaining measured after 15 mins; assay type: ADME, Microsome; conditions: read-out: Stability
[3] = target: Sodium channel protein type 5 subunit alpha (Homo sapiens, UniProt Q14524); experiment: Inhibition of Nav1.5 (unknown origin)
[4] = Aqueous solubility of the compound in PBS buffer at pH 7.4; assay type: physicochemical
[5] = Permeability of the compound by PAMPA method; assay type: ADME; conditions: read-out: permeability
[6] = target: Voltage-gated inwardly rectifying potassium channel KCNH2 (Homo sapiens, UniProt Q12809); experiment: Inhibition of hERG; assay type: toxicity
[7] = Dissociation constant, pKa of the compound; assay type: physicochemical

Sodium channel protein type 5 subunit alpha, sequence (Q14524 whole entry): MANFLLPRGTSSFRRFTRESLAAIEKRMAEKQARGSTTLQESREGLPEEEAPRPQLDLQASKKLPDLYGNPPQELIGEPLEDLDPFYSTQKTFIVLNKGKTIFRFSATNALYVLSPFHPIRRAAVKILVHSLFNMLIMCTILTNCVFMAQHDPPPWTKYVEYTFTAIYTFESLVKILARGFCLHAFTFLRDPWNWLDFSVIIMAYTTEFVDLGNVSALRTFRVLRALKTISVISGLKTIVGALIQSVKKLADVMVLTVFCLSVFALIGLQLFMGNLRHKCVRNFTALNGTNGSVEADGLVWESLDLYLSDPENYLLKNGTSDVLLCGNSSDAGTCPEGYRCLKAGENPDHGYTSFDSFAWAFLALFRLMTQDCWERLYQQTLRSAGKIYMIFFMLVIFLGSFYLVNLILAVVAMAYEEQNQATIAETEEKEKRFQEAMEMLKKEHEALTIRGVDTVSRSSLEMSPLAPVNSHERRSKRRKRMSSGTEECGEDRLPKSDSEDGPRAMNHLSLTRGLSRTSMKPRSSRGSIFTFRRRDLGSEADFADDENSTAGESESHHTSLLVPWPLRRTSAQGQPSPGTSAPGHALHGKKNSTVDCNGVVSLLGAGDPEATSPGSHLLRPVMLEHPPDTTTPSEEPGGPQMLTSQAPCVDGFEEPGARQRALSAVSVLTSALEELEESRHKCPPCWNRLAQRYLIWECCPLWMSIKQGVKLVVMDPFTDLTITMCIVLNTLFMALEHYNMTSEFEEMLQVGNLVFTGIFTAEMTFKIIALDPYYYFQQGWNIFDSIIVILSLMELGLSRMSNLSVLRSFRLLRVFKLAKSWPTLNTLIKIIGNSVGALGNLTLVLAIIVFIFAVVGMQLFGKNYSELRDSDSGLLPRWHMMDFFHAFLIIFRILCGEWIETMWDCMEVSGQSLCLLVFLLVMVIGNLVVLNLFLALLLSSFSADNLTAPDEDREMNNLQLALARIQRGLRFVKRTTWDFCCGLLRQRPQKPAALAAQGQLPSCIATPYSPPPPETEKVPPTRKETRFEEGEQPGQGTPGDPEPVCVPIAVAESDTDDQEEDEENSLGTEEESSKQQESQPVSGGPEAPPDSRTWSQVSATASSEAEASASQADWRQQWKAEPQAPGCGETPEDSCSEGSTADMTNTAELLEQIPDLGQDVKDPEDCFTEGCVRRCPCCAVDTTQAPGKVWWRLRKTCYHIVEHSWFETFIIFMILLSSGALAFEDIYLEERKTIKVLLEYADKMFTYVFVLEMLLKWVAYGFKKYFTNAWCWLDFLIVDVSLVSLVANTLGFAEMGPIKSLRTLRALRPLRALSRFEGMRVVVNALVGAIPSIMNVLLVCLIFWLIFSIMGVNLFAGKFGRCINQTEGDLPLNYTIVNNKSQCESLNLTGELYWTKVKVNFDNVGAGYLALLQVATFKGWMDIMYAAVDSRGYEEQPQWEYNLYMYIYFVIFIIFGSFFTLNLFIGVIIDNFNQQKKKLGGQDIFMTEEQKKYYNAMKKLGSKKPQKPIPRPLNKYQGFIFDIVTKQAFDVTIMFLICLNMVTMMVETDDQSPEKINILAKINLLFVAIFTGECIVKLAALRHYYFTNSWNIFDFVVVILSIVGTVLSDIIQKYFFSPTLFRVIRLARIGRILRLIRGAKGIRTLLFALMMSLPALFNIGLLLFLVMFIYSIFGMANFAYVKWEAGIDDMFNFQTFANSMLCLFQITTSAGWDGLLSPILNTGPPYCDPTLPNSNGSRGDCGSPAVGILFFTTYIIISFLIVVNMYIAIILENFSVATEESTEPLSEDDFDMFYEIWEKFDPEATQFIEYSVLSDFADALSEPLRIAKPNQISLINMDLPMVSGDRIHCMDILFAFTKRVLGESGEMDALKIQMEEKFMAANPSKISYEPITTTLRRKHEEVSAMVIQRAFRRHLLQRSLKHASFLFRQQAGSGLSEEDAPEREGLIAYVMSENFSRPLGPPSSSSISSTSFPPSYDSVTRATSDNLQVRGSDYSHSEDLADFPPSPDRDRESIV
P-gp (ABCB1), sequence (P08183 whole entry): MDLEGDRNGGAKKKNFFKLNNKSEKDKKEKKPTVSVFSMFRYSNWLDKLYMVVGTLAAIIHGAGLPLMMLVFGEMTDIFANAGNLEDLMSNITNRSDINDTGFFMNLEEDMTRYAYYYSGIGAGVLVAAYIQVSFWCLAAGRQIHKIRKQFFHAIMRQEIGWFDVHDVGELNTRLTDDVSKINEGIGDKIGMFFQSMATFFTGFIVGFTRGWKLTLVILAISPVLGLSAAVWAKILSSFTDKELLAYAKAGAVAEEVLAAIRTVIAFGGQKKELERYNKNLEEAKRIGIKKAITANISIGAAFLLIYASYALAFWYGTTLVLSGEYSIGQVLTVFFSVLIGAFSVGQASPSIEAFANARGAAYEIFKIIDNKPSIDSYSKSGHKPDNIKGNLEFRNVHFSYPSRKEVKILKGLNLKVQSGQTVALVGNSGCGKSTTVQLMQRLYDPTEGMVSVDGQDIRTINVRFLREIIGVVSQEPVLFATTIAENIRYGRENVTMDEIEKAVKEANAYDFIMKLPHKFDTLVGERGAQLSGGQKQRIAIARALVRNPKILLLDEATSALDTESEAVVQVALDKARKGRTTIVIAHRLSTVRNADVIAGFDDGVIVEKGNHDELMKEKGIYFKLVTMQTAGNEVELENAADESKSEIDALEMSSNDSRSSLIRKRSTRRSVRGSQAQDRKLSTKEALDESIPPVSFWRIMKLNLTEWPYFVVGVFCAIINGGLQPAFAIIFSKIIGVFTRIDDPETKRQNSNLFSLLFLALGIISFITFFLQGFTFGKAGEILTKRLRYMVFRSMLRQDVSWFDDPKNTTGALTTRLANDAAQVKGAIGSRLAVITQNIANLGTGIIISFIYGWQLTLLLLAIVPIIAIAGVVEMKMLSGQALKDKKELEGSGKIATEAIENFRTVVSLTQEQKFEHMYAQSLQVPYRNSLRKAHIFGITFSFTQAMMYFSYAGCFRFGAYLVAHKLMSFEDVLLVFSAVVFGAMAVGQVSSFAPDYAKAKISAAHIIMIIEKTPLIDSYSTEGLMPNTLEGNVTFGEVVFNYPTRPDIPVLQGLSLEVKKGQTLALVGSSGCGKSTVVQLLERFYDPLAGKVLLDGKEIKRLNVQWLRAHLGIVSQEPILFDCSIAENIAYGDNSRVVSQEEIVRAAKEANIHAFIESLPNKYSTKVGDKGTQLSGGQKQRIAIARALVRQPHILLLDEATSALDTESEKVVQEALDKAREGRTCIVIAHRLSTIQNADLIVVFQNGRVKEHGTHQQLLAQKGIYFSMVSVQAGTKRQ
Voltage-gated inwardly rectifying potassium channel KCNH2, sequence (Q12809 whole entry): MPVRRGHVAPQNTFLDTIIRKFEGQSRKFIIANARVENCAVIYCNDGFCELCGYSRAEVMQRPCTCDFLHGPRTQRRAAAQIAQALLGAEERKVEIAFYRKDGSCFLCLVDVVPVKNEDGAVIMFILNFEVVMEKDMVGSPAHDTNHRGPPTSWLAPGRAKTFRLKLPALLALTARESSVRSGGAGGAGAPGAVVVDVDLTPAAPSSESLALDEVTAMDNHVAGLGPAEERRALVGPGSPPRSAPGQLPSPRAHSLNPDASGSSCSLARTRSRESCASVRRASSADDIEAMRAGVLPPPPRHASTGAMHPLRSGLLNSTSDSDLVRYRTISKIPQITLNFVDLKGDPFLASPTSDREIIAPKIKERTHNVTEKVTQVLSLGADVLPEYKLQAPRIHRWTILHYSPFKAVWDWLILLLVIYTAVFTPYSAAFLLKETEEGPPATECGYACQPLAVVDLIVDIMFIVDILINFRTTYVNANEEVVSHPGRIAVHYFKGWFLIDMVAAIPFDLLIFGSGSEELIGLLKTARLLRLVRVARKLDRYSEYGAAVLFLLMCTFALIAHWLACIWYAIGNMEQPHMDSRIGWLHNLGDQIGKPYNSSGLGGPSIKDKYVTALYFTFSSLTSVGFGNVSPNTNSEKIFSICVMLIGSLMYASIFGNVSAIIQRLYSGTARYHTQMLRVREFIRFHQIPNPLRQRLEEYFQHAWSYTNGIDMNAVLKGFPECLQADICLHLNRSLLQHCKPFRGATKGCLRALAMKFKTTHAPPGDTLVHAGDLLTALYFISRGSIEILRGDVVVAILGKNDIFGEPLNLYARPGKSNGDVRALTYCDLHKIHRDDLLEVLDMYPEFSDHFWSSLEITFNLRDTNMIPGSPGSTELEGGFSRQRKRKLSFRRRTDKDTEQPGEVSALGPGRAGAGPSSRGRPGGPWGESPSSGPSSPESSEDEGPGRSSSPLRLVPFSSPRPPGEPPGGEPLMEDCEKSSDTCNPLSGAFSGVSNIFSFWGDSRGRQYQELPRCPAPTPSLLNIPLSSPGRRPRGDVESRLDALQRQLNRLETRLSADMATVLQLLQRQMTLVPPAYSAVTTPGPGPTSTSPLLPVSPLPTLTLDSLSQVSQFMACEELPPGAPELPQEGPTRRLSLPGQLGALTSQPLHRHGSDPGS

## O=c1n(CC(F)CN2C3CCC2CC(OCc2ccccc2F)C3)nc2n1CCC2 (stereo not drawn)
P-gp (ABCB1)
  efflux ratio: 2.52
[1]
  solubility: 79 µM (≈ 33.1 µg/mL)
[2]
  remaining at 0.25 h: 92.3%
[3]
  IC50: 13.4 µM
[4]
  solubility: 82 µM (≈ 34.3 µg/mL)
[5]
  Papp: 4.44 ×10⁻⁶ cm/s
[6]
  IC50: 22.2 µM

## O=c1n(CC(F)CN2C3CCC2CC(OCc2ccccc2F)C3)nc2ccccn12 (stereo not drawn)
P-gp (ABCB1)
  efflux ratio: 1.27
[1]
  solubility: ≥ 100 µM
[2]
  remaining at 0.25 h: 66.9%
[3]
  IC50: 17.8 µM
[4]
  solubility: 82 µM (≈ 35.1 µg/mL)
[7]
  pKa: 8.1
[5]
  Papp: 10.6 ×10⁻⁶ cm/s
[6]
  IC50: 1.8 µM

## O=c1n(CCCN2C3CCC2CC(OCc2ccccc2F)C3)nc2n1CCC2 (stereo not drawn)
P-gp (ABCB1)
  efflux ratio: 19.4
[1]
  solubility: ≥ 100 µM
[2]
  remaining at 0.25 h: 95.8%
[3]
  IC50: 5.9 µM
[4]
  solubility: ≥ 100 µM
[5]
  Papp: 1.62 ×10⁻⁶ cm/s
[6]
  IC50: 5.2 µM

## O=c1n(CCCN2C3CCC2(F)CC(OCc2ccccc2F)C3)nc2ccccn12 (stereo not drawn)
P-gp (ABCB1)
  efflux ratio: 0.96
[1]
  solubility: ≥ 100 µM
[2]
  remaining at 0.25 h: 10.7%
[3]
  IC50: > 30 µM
[4]
  solubility: 73 µM (≈ 31.3 µg/mL)
[7]
  pKa: 5.4
[5]
  Papp: 10.6 ×10⁻⁶ cm/s
[6]
  IC50: 7.6 µM

## O=c1n(CC(O)CN2C3CCC2CC(OCc2ccccc2F)C3)nc2n1CCC2 (stereo not drawn)
P-gp (ABCB1)
  efflux ratio: 9.16
[1]
  solubility: ≥ 100 µM
[2]
  remaining at 0.25 h: 99.8%
[3]
  IC50: 12.9 µM
[4]
  solubility: 94 µM (≈ 39.2 µg/mL)
[5]
  Papp: 0.46 ×10⁻⁶ cm/s
[6]
  IC50: 19.7 µM

## O=c1n(CCCN2C3CCC2CC(COc2ccccc2F)C3)nc2ccccn12 (stereo not drawn)
P-gp (ABCB1)
  efflux ratio: 3.07
[1]
  solubility: ≥ 100 µM
[2]
  remaining at 0.25 h: 45.6%
[3]
  IC50: 6 µM
[4]
  solubility: 95 µM (≈ 39 µg/mL)
[5]
  Papp: 4.86 ×10⁻⁶ cm/s
[6]
  IC50: 0.07 µM

## O=c1n(CC(O)CN2C3CCC2CC(OCc2ccccc2F)C3)nc2ccccn12 (stereo not drawn)
P-gp (ABCB1)
  efflux ratio: 6.36
[1]
  solubility: ≥ 100 µM
[2]
  remaining at 0.25 h: 82%
[3]
  IC50: 11.9 µM
[4]
  solubility: 95 µM (≈ 40.5 µg/mL)
[5]
  Papp: 2.16 ×10⁻⁶ cm/s
[6]
  IC50: 1.2 µM

## O=c1n(CCCN2C3CCC2(F)CC(OCc2ccccc2F)C3)nc2n1CCC2 (stereo not drawn)
P-gp (ABCB1)
  efflux ratio: 1.39
[1]
  solubility: ≥ 100 µM
[2]
  remaining at 0.25 h: 31.8%
[3]
  IC50: > 30 µM
[4]
  solubility: 96 µM (≈ 40.2 µg/mL)
[5]
  Papp: 7.78 ×10⁻⁶ cm/s
[6]
  IC50: > 30 µM

## O=c1n(CCCN2C3CCC2CC(OCc2ccccc2F)C3)nc2ccccn12 (stereo not drawn)
P-gp (ABCB1)
  efflux ratio: 3.39
[1]
  solubility: ≥ 100 µM
[2]
  remaining at 0.25 h: 70.9%
[3]
  IC50: 3 µM
[4]
  solubility: 99 µM (≈ 40.6 µg/mL)
[7]
  pKa: 8.7
[5]
  Papp: 4.93 ×10⁻⁶ cm/s
[6]
  IC50: 0.11 µM

## O=c1n(CCCN2C3CCC2(F)CC(COc2ccccc2F)C3)nc2ccccn12 (racemic)
P-gp (ABCB1)
  efflux ratio: 1.34
[1]
  solubility: ≥ 100 µM
[2]
  remaining at 0.25 h: 34.7%
[3]
  IC50: > 30 µM
[4]
  solubility: 61 µM (≈ 26.1 µg/mL)
[5]
  Papp: 11.1 ×10⁻⁶ cm/s
[6]
  IC50: > 30 µM
